In US9394311B2, “Triazolo compounds as PDE10 inhibitors” (Hoffmann-La Roche Inc., priority 2012, dated 2016):

What follows are molecules tested against human PDE10A (Homo sapiens (Human), UniProt Q9Y233) (assay: human PDE10A full length Scintillation Proximity Assay (SPA)). Conditions: PDE10A full length enzyme, 50 nM cGMP / [3H]-cGMP substrate, 20 minutes at room temperature.
Format: biochemical
Protocol: The following test was carried out in order to determine the activity of the compounds of the present invention. PDE10 activity of the compounds of the present invention was determined using a Scintillation Proximity Assay (SPA)-based method similar to the one previously described (Fawcett, L. et al., Proc Natl Acad Sci USA (2000) 97(7):3702-3707).
The human PDE10A full length assay was performed in 96-well micro titer plates. The reaction mixture of 50 μl contained 20 mM HEPES pH=7.5/10 mM MgCl2/0.05 mg/ml BSA (Sigma cat. # A-7906), 50 nM cGMP (Sigma, cat. # G6129) and 50 nM [3H]-cGMP (GE Healthcare, cat. # TRK392 S.A. 13.2 Ci/mmol), 3.75 ng/well PDE10A enzyme (Enzo Life Science, Lausen, Switzerland cat # SE-534) with or without a specific test compound. A range of concentrations of the potential inhibitor was used to generate data for calculating the concentration of inhibitor resulting in 50% of the effect (e.g. IC50, the concentration of the competitor inhibiting PDE10A activity by 50%). Non-specific activity was tested without the enzyme. The reaction was initiated by the addition of the substrate solution (cGMP and [3H]-cGMP) and allowed to progress for 20 minutes at room temperature. The reaction was terminated by adding 25 μl of YSi-SPA scintillation beads (GE Healthcare, cat. # RPNQ0150) in 18 mM zinc sulphate solution (stop reagent). After 1 h under shaking, the plate was centrifuged one minute at 170 g to allow beads to settle. Afterwards, radioactive counts were measured on a Perkin Elmer Top-Count Scintillation plate reader.

Sequence of human PDE10A (Q9Y233 other isoform, or with tags, fused parts or gaps): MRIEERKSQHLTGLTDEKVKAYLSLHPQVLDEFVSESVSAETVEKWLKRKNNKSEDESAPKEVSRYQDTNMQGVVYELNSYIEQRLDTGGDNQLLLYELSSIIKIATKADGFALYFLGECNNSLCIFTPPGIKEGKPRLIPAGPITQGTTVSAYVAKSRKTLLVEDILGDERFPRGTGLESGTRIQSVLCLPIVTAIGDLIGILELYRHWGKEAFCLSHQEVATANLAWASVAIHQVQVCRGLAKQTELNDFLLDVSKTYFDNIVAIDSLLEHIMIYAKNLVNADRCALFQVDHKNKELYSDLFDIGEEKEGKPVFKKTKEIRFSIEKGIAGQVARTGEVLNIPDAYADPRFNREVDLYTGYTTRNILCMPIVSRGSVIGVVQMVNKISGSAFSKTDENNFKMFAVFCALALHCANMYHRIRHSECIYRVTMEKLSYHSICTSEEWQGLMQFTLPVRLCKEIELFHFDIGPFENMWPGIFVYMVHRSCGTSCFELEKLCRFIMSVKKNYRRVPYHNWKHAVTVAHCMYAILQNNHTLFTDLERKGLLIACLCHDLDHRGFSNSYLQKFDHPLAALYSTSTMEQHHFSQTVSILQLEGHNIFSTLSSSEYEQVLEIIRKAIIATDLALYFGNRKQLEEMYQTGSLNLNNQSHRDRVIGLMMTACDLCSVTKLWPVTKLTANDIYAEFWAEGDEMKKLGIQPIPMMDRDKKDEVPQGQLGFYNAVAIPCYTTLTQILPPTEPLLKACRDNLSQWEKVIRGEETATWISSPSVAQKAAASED

Point of comparison: `Cc1cncc2nc(CCc3nc(N4CCCC4)nn3C)nn12` [Example 57, 5-Methyl-2-(2-(1-methyl-3-(pyrrolidin-1-yl)-1H-1,2,4-triazol-5-yl)ethyl)-[1,2,4]triazolo[1,5-a]pyrazine], IC50 251 nM. Against it:
- Cc1ncc(C)n2nc(/C=C/c3nc(N(C)CC4CC4)nn3C)nc12 [Example 97, Cyclopropylmethyl-{5-[(E)-2-(5,8-dimethyl-[1,2,4]triazolo[1,5-a]pyrazin-2-yl)-vinyl]-1-methyl-1H-[1,2,4]triazol-3-yl}-methyl-amine] — 3.2-fold lower, 79.3 nM
- Cc1ccn2nc(CCc3nc(N4CCCC4)n(C)n3)nc2c1C [Example 32, 7,8-Dimethyl-2-(2-(1-methyl-5-(pyrrolidin-1-yl)-1H-1,2,4-triazol-3-yl)ethyl)-[1,2,4]triazolo[1,5-a]pyridine] — 35-fold lower, 7.23 nM
- Cc1ncc(C)n2nc(CCc3nc(N4CCCC4)nn3CC(F)F)nc12 [Example 110, 2-{2-[2-(2,2-Difluoro-ethyl)-5-pyrrolidin-1-yl-2H-[1,2,4]triazol-3-yl]-ethyl}-5,8-dimethyl-[1,2,4]triazolo[1,5-a]pyrazine] — 77-fold lower, 3.25 nM
- Cc1c(Cl)cc(OC2CCOCC2)c2nc(CCc3nc(N4CCCC4)nn3C)nn12 [Example 120, 6-Chloro-5-methyl-2-(2-(1-methyl-3-(pyrrolidin-1-yl)-1H-1,2,4-triazol-5-yl)ethyl)-8-(tetrahydro-2H-pyran-4-yloxy)-[1,2,4]triazolo[1,5-a]pyridine] — 700-fold lower, 0.36 nM
- Cc1c(Cl)ccc2nc(CCc3nc(N4CCCC4)n(C)n3)nn12 [Example 28, 6-Chloro-5-methyl-2-[2-(1-methyl-5-pyrrolidin-1-yl-1H-[1,2,4]triazol-3-yl)-ethyl]-[1,2,4]triazolo[1,5-a]pyridine] — 120-fold lower, 2.13 nM
- Cc1c(Cl)cc(OCC(F)(F)F)c2nc(CCc3nc(N4CCCC4)nn3C)nn12 [Example 98, 6-Chloro-5-methyl-2-[2-(2-methyl-5-pyrrolidin-1-yl-2H-[1,2,4]triazol-3-yl)-ethyl]-8-(2,2,2-trifluoro-ethoxy)-[1,2,4]triazolo[1,5-c]pyridine] — 490-fold lower, 0.51 nM
- Cc1ncc(C)n2nc(CCc3nc(N4CC(C)C4)nn3C)nc12 [Example 89, 5,8-Dimethyl-2-{2-[2-methyl-5-(3-methyl-azetidin-1-yl)-2H-[1,2,4]triazol-3-yl]-ethyl}-[1,2,4]triazolo[1,5-a]pyrazine] — 2.3-fold lower, 108 nM
- Cc1cc(Cl)c(C)n2nc([C@H]3C[C@@H]3c3nc(N4CCCC4)nn3C)nc12 [Example 46, 6-Chloro-5,8-dimethyl-2-[(1S,2S)-2-(2-methyl-5-pyrrolidin-1-yl-2H-[1,2,4]triazol-3-yl)-cyclopropyl]-[1,2,4]triazolo[1,5-a]pyridine] — 50-fold lower, 4.98 nM
- Cc1ncc(C)n2nc(CCc3nc(N4CC[C@@H](C)C4)nn3C)nc12 [Example 116, 5,8-Dimethyl-2-{2-[2-methyl-5-((R)-3-methyl-pyrrolidin-1-yl)-2H-[1,2,4]triazol-3-yl]-ethyl}-[1,2,4]triazolo[1,5-a]pyrazine] — 28-fold lower, 8.94 nM
- Cc1cnc(C)n2nc(CCc3nc(N4CCC[C@@H]4C)nn3C)nc12 [Example 112, 5,8-Dimethyl-2-{2-[2-methyl-5-((S)-2-methyl-pyrrolidin-1-yl)-2H-[1,2,4]triazol-3-yl]-ethyl}-[1,2,4]triazolo[1,5-c]pyrimidine] — 28-fold lower, 9 nM
- Cc1ncc(C)n2nc(CCc3nc(N4CCC[C@H]4C)nn3C)nc12 [Example 101, 5,8-Dimethyl-2-{2-[2-methyl-5-((R)-2-methyl-pyrrolidin-1-yl)-2H-[1,2,4]triazol-3-yl]-ethyl}-[1,2,4]triazolo[1,5-a]pyrazine] — 4.4-fold lower, 57.6 nM
- Cc1ncc(C)n2nc(CCc3nc(N4CCCC4)nn3C)nc12 [Example 14, 5,8-Dimethyl-2-[2-(2-methyl-5-pyrrolidin-1-yl-2H-[1,2,4]triazol-3-yl)-ethyl]-[1,2,4]triazolo[1,5-a]pyrazine] — 44-fold lower, 5.76 nM
- Cc1ncc(C)n2nc(CCc3nc(N4CCCC4=O)nn3C)nc12 [Example 87, 1-{5-[2-(5,8-Dimethyl-[1,2,4]triazolo[1,5-a]pyrazin-2-yl)-ethyl]-1-methyl-1H-[1,2,4]triazol-3-yl}-pyrrolidin-2-one] — within 1.5-fold, 288 nM
- Cc1c(Cl)cc(C(F)(F)F)c2nc(CCc3nc(N4CCCC4)nn3C3CC3)nn12 [Example 132, 6-Chloro-2-(2-(1-cyclopropyl-3-(pyrrolidin-1-yl)-1H-1,2,4-triazol-5-yl)ethyl)-5-methyl-8-(trifluoromethyl)-[1,2,4]triazolo[1,5-a]pyridine] — 350-fold lower, 0.72 nM
- Cn1nc(N2CCCC2)nc1CCc1nc2cc(C(F)(F)F)ccn2n1 [Example 66, 2-(2-(1-Methyl-3-(pyrrolidin-1-yl)-1H-1,2,4-triazol-5-yl)ethyl)-7-(trifluoromethyl)-[1,2,4]triazolo[1,5-a]pyridine] — within 1.5-fold, 331 nM
- Cc1cnc(C)n2nc(CCc3nc(N4CCCC4C)nn3C)nc12 (stereo not drawn) [Example 111, 5,8-Dimethyl-2-{2-[2-methyl-5-(2-methyl-pyrrolidin-1-yl)-2H-[1,2,4]triazol-3-yl]-ethyl}-[1,2,4]triazolo[1,5-c]pyrimidine] — 14-fold lower, 18.4 nM
- Cc1c(Cl)cc(C2CC2)c2nc(CCc3nc(N4CCCC4)nn3C)nn12 [Example 77, 6-Chloro-8-cyclopropyl-5-methyl-2-[2-(2-methyl-5-pyrrolidin-1-yl-2H-[1,2,4]triazol-3-yl)-ethyl]-[1,2,4]triazolo[1,5-a]pyridine] — 25-fold lower, 9.99 nM
- Cc1c(Cl)cc(C(F)(F)F)c2nc(CCc3nc(N4CC[C@@H](F)C4)nn3C)nn12 [Example 127, (R)-6-Chloro-2-(2-(3-(3-fluoropyrrolidin-1-yl)-1-methyl-1H-1,2,4-triazol-5-yl)ethyl)-5-methyl-8-(trifluoromethyl)-[1,2,4]triazolo[1,5-a]pyridine] — 93-fold lower, 2.71 nM
- Cc1ncc(C)n2nc(CCc3nc(N4CC[C@@H](F)C4)nn3C)nc12 [Example 96, 2-{2-[5-((R)-3-Fluoro-pyrrolidin-1-yl)-2-methyl-2H-[1,2,4]triazol-3-yl]-ethyl}-5,8-dimethyl-[1,2,4]triazolo[1,5-a]pyrazine] — 23-fold lower, 10.7 nM
- COC[C@H]1CCCN1c1nc(CCc2nc3c(C)ncc(C)n3n2)n(C)n1 [Example 124, 2-{2-[5-((R)-2-Methoxymethyl-pyrrolidin-1-yl)-2-methyl-2H-[1,2,4]triazol-3-yl]-ethyl}-5,8-dimethyl-[1,2,4]triazolo[1,5-a]pyrazine] — 18-fold lower, 14.1 nM
- Cc1c(C#N)cc(C(F)(F)F)c2nc(CCc3nc(N4CCCC4)nn3C)nn12 [Example 83, 5-Methyl-2-(2-(1-methyl-3-(pyrrolidin-1-yl)-1H-1,2,4-triazol-5-yl)ethyl)-8-(trifluoromethyl)-[1,2,4]triazolo[1,5-a]pyridine-6-carbonitrile] — 37-fold lower, 6.84 nM
- Cc1c(Cl)cc(C(C)(C)O)c2nc(CCc3nc(N4CCCC4)nn3C)nn12 [Example 80, 2-{6-Chloro-5-methyl-2-[2-(2-methyl-5-pyrrolidin-1-yl-2H-[1,2,4]triazol-3-yl)-ethyl]-[1,2,4]triazolo[1,5-c]pyridin-8-yl}-propan-2-ol] — 3.3-fold lower, 76.3 nM
- Cc1c(Cl)cc(C(F)(F)F)c2nc(CCc3nc(N4CCCC4)n(C)n3)nn12 [Example 105, 6-Chloro-5-methyl-2-[2-(1-methyl-5-pyrrolidin-1-yl-1H-[1,2,4]triazol-3-yl)-ethyl]-8-trifluoromethyl-[1,2,4]triazolo[1,5-c]pyridine] — 570-fold lower, 0.44 nM
